Reference: US20240400583A1, “TRICYCLIC SULFAMIDES AND SULTAMS” (Merck Sharp & Dohme LLC, priority 2021, published 2024)

Assays:
[1] = target: T1, DCAF15 RBM39 ternary complex (Homo sapiens, UniProt Q14498+Q66K64, DEL276-383); test: DCAF15 RBM39 Ternary Complex Formation Assay; assay type: binding; settings: apparent EC50 for compound-induced complex formation, 10 nM DCAF15 triplex, 50 nM RBM39 R1R2, FRET 665/615
T1 construct: RBM39 (aa 150 to 331; UniProt: Q14498); TEV cleavage site (pGEX4T3 vector); made in house; host or cells: Sf9 (baculovirus) for the triplex; E. coli for the RBM39 fragment according to b294
From the text: (§1) Proteins used for the assays were as follows: Human DDA1 (UniProt:Q9BW61), DDB1 (UniPro:Q16531), and DCAF15 (UniProt:Q66K64) coding sequences were cloned into pFastBac1 vectors and were co-expressed in Sf9 cells using Bac-to-Bac baculovirus expression system (Thermo Fisher Scientific). The expression construct for DCAF15 includes a N-terminal His6-tag to facilitate the purification. The atrophin-1 homology region of DCAF15 (amino acid residues 276-383) was excised (Apro, originally to facilitate crystallization). Triplex of DDA1-DDB1ΔB-DCAF15Apro, which has the BPB domain (aa 396 to 705) excised and replaced with a GNGNSG linker, was used in all the kinetic measurements because of the higher yield. R^1R^2 of RBM39 (aa 150 to 331; UniProt: Q14498) contained a C-terminal FLAG tag used in the DCAF15/RBM39 complex formation assay. DCAF15 Displacement Assay (Displacement FRET KD)
His-tagged DDA1-DDB1ΔB-DCAFISΔpro triplex and RIR2 with a C-terminal FLAG were used in the assay and compound-induced complex formation was monitored through resonance transfer between europium-labeled anti-His antibody and APC-labeled anti-FLAG antibody (AD0059F, Perkin Elmer).

DCAF15 = target: T2, DCAF15 (Homo sapiens, UniProt Q66K64, DEL276-383); test: DCAF15 Displacement Assay (displacement of probe PT7795, FRET); assay type: binding; settings: competition with 300 nM PT7795 on DDA1-DDB1ΔB-DCAF15Δpro triplex, 18 hours incubation, FRET 665/615
T2 construct: made in house; host or cells: Sf9 (baculovirus, Bac-to-Bac)
From the text: as §1
The previously described procedure was followed (See X. Du, et al., “Structural Basis and Kinetic Pathway of RBM39 Recruitment to DCAF15 by a Sulfonamide Molecular Glue E7820”, Structure, 27, 1625-1633.e3, 2019). Synthesis of the probe PT7795 is described in the article.
Binding of PT7795 to DDA1-DDB1ΔB-DCAF15Apro was measured by the FRET signal between europium-labeled anti-His antibody (AD0205, Perkin Elmer) that is associated with His-tagged DCAF15 and ALX647 moiety in PT7795. The concentration of PT7795 was varied from 2.3 nM to 1000 nM in 16 wells, each containing 25 mM HEPES pH7.5, 100 mM NaCl, 0.1 mg/ml BSA, 0.005% Tween 20, 0.5 mM TCEP, 4% DMSO, 0.5 nM europium-labeled anti-His antibody, and 10 nM triplex of DDA1-DDB1 DB-DCAF15 Apro. After equilibrating for 2-3 hours at 4° C., the plate was removed from the incubator, briefly spun, then read on a Spark 10 (Tecan) at the excitation/emission wavelength of 340 nm/615 nm and 340 nm/665 nm. To obtain Kd, the ratio of 665/615 readings was fitted to Equation 1, where F stands for the ratio of 665/615 […].
Binding of compounds in this disclosure to DCAF15 was measured in a competition by the displacement of PT7795. The concentration of PT7795 was kept at 300 nM while the concentration of a compound was varied from 0.01 to 100 μM. The incubation time was increased to 18 hours for enhanced signal to noise level. To obtain IC50, the ratio of 665/615 readings was fitted to Equation 2, where n is Hill slope.

| SMILES | EC50 [1] [nM] | IC50 (DCAF15) [nM] |
| --- | --- | --- |
| COCCOCCCN1Cc2cc(Cl)c3c(Cl)c[nH]c3c2NS1(=O)=O [Compound 1, 6,7-dichloro-3-(3-(2-methoxyethoxy)propyl)-1,3,4,9-tetrahydro-[1,2,6]thiadiazino[4,3-g]indole 2,2-dioxide] | 12.7 | 1420 |
| COCCOCCOCCCN1Cc2cc(Cl)c3c(Cl)c[nH]c3c2NS1(=O)=O [Compound 2, 6,7-dichloro-3-(3-(2-(2-methoxyethoxy)ethoxy)propyl)-1,3,4,9-tetrahydro-[1,2,6]thiadiazino[4,3-g]indole 2,2-dioxide] | 247 | 25000 |
| COCCCCCOCCCN1Cc2cc(Cl)c3c(Cl)c[nH]c3c2NS1(=O)=O [Compound 3, 6,7-dichloro-3-(3-((5-methoxypentyl)oxy)propyl)-1,3,4,9-tetrahydro-[1,2,6]thiadiazino[4,3-g]indole 2,2-dioxide] | 21.4 | 2500 |
| COCCOCC(=O)N1CCC(CN2Cc3cc(Cl)c4c(Cl)c[nH]c4c3NS2(=O)=O)CC1 [Compound 4, 1-(4-((6,7-dichloro-2,2-dioxido-4,9-dihydro-[1,2,6]thiadiazino[4,3-g]indol-3(1H)-yl)methyl)piperidin-1-yl)-2-(2-methoxyethoxy)ethan-1-one] | 4.3 | 200 |
| COCCOCC(=O)N1CCCC(CN2Cc3cc(Cl)c4c(Cl)c[nH]c4c3NS2(=O)=O)C1 (stereo not drawn) [Compound 5, 1-(3-((6,7-dichloro-2,2-dioxido-4,9-dihydro-[1,2,6]thiadiazino[4,3-g]indol-3(1H)-yl)methyl)piperidin-1-yl)-2-(2-methoxyethoxy)ethan-1-one] | 7.8 | 98 |
| COCCCCC(=O)N1CCC(CN2Cc3cc(Cl)c4c(Cl)c[nH]c4c3NS2(=O)=O)CC1 [Compound 6, 1-(4-((6,7-dichloro-2,2-dioxido-4,9-dihydro-[1,2,6]thiadiazino[4,3-g]indol-3(1H)-yl)methyl)piperidin-1-yl)-5-methoxypentan-1-one] | 4.3 | 156 |
| COCCCCC(=O)N1CCCC(CN2Cc3cc(Cl)c4c(Cl)c[nH]c4c3NS2(=O)=O)C1 (stereo not drawn) [Compound 7, 1-(3-((6,7-dichloro-2,2-dioxido-4,9-dihydro-[1,2,6]thiadiazino[4,3-g]indol-3(1H)-yl)methyl)piperidin-1-yl)-5-methoxypentan-1-one] | 10.6 | 480 |
| CC(C)(C)OC(=O)NCCCCC(=O)N1CCC(CN2Cc3cc(Cl)c4c(Cl)c[nH]c4c3NS2(=O)=O)CC1 [Compound 8, tert-butyl (5-(4-((6,7-dichloro-2,2-dioxido-4,9-dihydro-[1,2,6]thiadiazino[4,3-g]indol-3(1H)-yl)methyl)piperidin-1-yl)-5-oxopentyl)carbamate] | 4.5 | 261 |
| NCCCCC(=O)N1CCC(CN2Cc3cc(Cl)c4c(Cl)c[nH]c4c3NS2(=O)=O)CC1 [Compound 9, 5-amino-1-(4-((6,7-dichloro-2,2-dioxido-4,9-dihydro-[1,2,6]thiadiazino[4,3-g]indol-3(1H)-yl)methyl)piperidin-1-yl)pentan-1-one] | 4.9 | 244 |
| CNC(=O)c1[nH]c2c3c(cc(Cl)c2c1Cl)CN(CC1CCCNC1)S(=O)(=O)N3 (stereo not drawn) [Compound 10, 6,7-dichloro-N-methyl-3-(piperidin-3-ylmethyl)-1,3,4,9-tetrahydro-[1,2,6]thiadiazino[4,3-g]indole-8-carboxamide 2,2-dioxide] | > 25000 | 2090 |
| CNC(=O)c1[nH]c2c3c(cc(Cl)c2c1Cl)CN(CC1CCCN(C(=O)OC(C)(C)C)C1)S(=O)(=O)N3 (stereo not drawn) [Compound 11, tert-butyl 3-((6,7-dichloro-8-(methylcarbamoyl)-2,2-dioxido-4,9-dihydro-[1,2,6]thiadiazino[4,3-g]indol-3(1H)-yl)methyl)piperidine-1-carboxylate] | > 25000 | 1440 |
| CNC(=O)c1[nH]c2c3c(cc(Cl)c2c1Cl)CN(CC1CCCN(C(C)=O)C1)S(=O)(=O)N3 (stereo not drawn) [Compound 12, 3-((1-acetylpiperidin-3-yl)methyl)-6,7-dichloro-N-methyl-1,3,4,9-tetrahydro-[1,2,6]thiadiazino[4,3-g]indole-8-carboxamide 2,2-dioxide] | > 25000 | 679 |
| COCCCN1Cc2cc(Cl)c3c(Cl)c(C(=O)OC)[nH]c3c2NS1(=O)=O [Compound 13, methyl 6,7-dichloro-3-(3-methoxypropyl)-1,3,4,9-tetrahydro-[1,2,6]thiadiazino[4,3-g]indole-8-carboxylate 2,2-dioxide] | > 25000 | 1300 |
| CCOC(=O)c1[nH]c2c3c(cc(Cl)c2c1Cl)CN(CCCOC)S(=O)(=O)N3 [Compound 14, ethyl 6,7-dichloro-3-(3-methoxypropyl)-1,3,4,9-tetrahydro-[1,2,6]thiadiazino[4,3-g]indole-8-carboxylate 2,2-dioxide] | 2510 | 2050 |
| CNC(=O)c1[nH]c2c3c(cc(Cl)c2c1Cl)CN(CCCOC)S(=O)(=O)N3 [Compound 15, 6,7-dichloro-3-(3-methoxypropyl)-N-methyl-1,3,4,9-tetrahydro-[1,2,6]thiadiazino[4,3-g]indole-8-carboxamide 2,2-dioxide] | > 25000 | 1280 |
| COCCCN1Cc2cc(Cl)c3c(Cl)c(CCCC(=O)O)[nH]c3c2NS1(=O)=O [Compound 18, 4-(6,7-dichloro-3-(3-methoxypropyl)-2,2-dioxido-1,3,4,9-tetrahydro-[1,2,6]thiadiazino[4,3-g]indol-8-yl)butanoic acid] | > 25000 | 652 |
| COCCCN1Cc2cc(Cl)c3c(Cl)c(CCCC(N)=O)[nH]c3c2NS1(=O)=O [Compound 19, 4-(6,7-dichloro-3-(3-methoxypropyl)-2,2-dioxido-1,3,4,9-tetrahydro-[1,2,6]thiadiazino[4,3-g]indol-8-yl)butanamide] | > 25000 | 824 |
| CC(=O)N1CCCC(CN2Cc3cc(Cl)c4c(Cl)c(CCCC(N)=O)[nH]c4c3NS2(=O)=O)C1 (stereo not drawn) [Compound 20, 4-(3-((1-acetylpiperidin-3-yl)methyl)-6,7-dichloro-2,2-dioxido-1,3,4,9-tetrahydro-[1,2,6]thiadiazino[4,3-g]indol-8-yl)butanamide] | > 25000 | 105 |
| CC(C)(C)OC(=O)N1CCCC(CN2Cc3cc(Cl)c4c(Cl)c(CCCC(N)=O)[nH]c4c3NS2(=O)=O)C1 (stereo not drawn) [Compound 22, tert-butyl 3-((8-(4-amino-4-oxobutyl)-6,7-dichloro-2,2-dioxido-4,9-dihydro-[1,2,6]thiadiazino[4,3-g]indol-3(1H)-yl)methyl)piperidine-1-carboxylate] | > 25000 | 5780 |
| O=C(O)CCCc1[nH]c2c3c(cc(Cl)c2c1Cl)CN(CC1CCCNC1)S(=O)(=O)N3 (stereo not drawn) [Compound 23, 4-(6,7-dichloro-2,2-dioxido-3-(piperidin-3-ylmethyl)-1,3,4,9-tetrahydro-[1,2,6]thiadiazino[4,3-g]indol-8-yl)butanoic acid] | > 25000 | 277 |
| COC(=O)CCCc1[nH]c2c3c(cc(Cl)c2c1Cl)CN(Cc1ccnc(O)c1)S(=O)(=O)N3 [Compound 24, methyl 4-(6,7-dichloro-3-((2-hydroxypyridin-4-yl)methyl)-2,2-dioxido-1,3,4,9-tetrahydro-[1,2,6]thiadiazino[4,3-g]indol-8-yl)butanoate] | > 25000 | 317 |
